In US20110104144A1, “METHODS FOR TREATING CUTANEOUS LUPUS USING AMINOISOINDOLINE COMPOUNDS” (CELGENE CORPORATION, priority 2005, published 2011):

What was measured:
CD51/61 = assay: HUVEC cell surface expression of CD51/61 by flow cytometry; format: cell-based, Human; conditions: unstimulated, 10 μM, FIG. 1
Method: (§1) A) Materials. Human Umbilical Vein Endothelial Cells (HUVEC) sent from LifeBank, were tested in Experiments A-K with several adhesion molecules. The adhesion molecules tested were CD51/CD61FITC (obtained from BD PharMingen, San Diego, Calif.; Catalog No. 555505), ICAM-1 PE also known as CD54 (obtained from BD PharMingen, San Diego, Calif.; Catalog No. 555511), ICAM-2 also known as CD102 (obtained from Research Diagnostics Inc., Concord, Mass.; Catalog No. RDI-CBL539FT), VCAM-1 (obtained from BD PharMingen, San Diego, Calif.; Catalog No. 555647), P-Selectin FITC (obtained from R&D Systems, Inc., Minneapolis, Minn.; Catalog No. BBA34), E-Selectin FITC (obtained from R&D Systems, Inc., Minneapolis, Minn.; Catalog No. BBA21), HLA Class I FITC (obtained from BD PharMingen, San Diego, Calif.; Catalog No. 555553), HLA Class II PE (obtained from BD PharMingen, San Diego, Calif.; Catalog No. 555558), CD44 FITC (obtained from BD PharMingen, San Diego, Calif.; Catalog No. 347943), CD144 (Cadherin VE) (obtained from CHEMICON International, Inc., Temecula, Calif.; Catalog No. MAB1989), IgG2a FITC (obtained from BD PharMingen, San Diego, Calif.; Cat #556652), Ms IgG2a (obtained from CHEMICON International, Inc., Temecula, Calif.; Cat. No. PP102), IgG1 FITC (obtained from BD PharMingen, San Diego, Calif.; Cat. No. 349041) and IgG1 PE (obtained from BD PharMingen, San Diego, Calif.; Cat. No. 349043).
(§2) Compound (1) ((+)-2-[1-(3-ethoxy-4-methoxyphenyl)-2-methylsulfonylethyl]-4-acetylaminoisoindoline-1,3-dione) and Compound (2) (4-(amino)-2-(2,6-dioxo(3-piperidyl))-isoindoline-1,3-dione) were obtained according to the preparation procedures disclosed herein. 16,16-Dimethyl-PGE2 (hereinafter PGE2) was obtained from BIOMOL International, L.P. (Plymouth Meeting, Pa.; Catalog No. PG-021). TNF-αwas obtained from Pierce Biotechnology (Rockford, Ill.; Catalog No. RTNFA 10).
(§3) B) Methods. […]

ICAM-1 = assay: HUVEC cell surface expression of ICAM-1 by flow cytometry; format: cell-based, Human; conditions: TNF-α stimulated, 10 μM, FIG. 5
Method: (§4) A) Materials. Human Umbilical Vein Endothelial Cells (HUVEC) sent from LifeBank, were tested in Experiments A-K with several adhesion molecules. […]

E-Selectin [1] = assay: HUVEC cell surface expression of E-Selectin by flow cytometry; format: cell-based, Human; conditions: 10 μM; for E-Selectin cell surface expression: unstimulated, FIG. 2
Method: as §1, §2
(§5) B) Methods. HUVEC's were plated on 6-well plates at a concentration of 1×10^5 cells/well in 3 ml EBM® endothelial basal media (obtained from Cambrex Corporation, East Rutherford, N.J.; Catalog No. CC-3121) and singlequots (obtained from Cambrex Corporation, East Rutherford, N.J.; Catalog No. CC-4133). The cells were incubated overnight in a 37° C. and 5% CO2 humidified incubator to allow cells to attach. The old media was removed in next day and replaced with 3 ml fresh EBM® endothelial basal media. Then, samples of 3 μl of 10 mM of Compound (1), Compound (2), PGE2 and a mixture of Compound (1) and PGE2 were added separately to each well of the plates in duplicate to give a final concentration of 10 μM. An unstimulated DMSO control and a TNF-α-stimulated control were also added in duplicate. The plates were incubated in a 37° C. and 5% CO2 humidified incubator for 1 hr. […] The plates were incubated overnight in a 37° C. and 5% CO2 humidified incubator. The cells were also tested without TNF-α. The media was removed in the next day and each well was washed with 3 ml of phosphate buffered saline (PBS). Then, 3 ml of PBS containing 1 mM of EDTA (ethylenediaminetetraacetate) was added to each well to allow the cells to detach. Once the cells detached, they were gently scraped and placed in 4.5 ml Falcon tubes. The tubes were then centrifuged at 1200 RPM for 8 minutes at 4° C. The supernatant was carefully removed. Next, 50 μl of PBS-FACS buffer (5% fetal bovine serum (FBS), 0.02% sodium azide in PBS) and 20 μl of antibodies were added to all tubes as follows:
(§6) After the antibodies were added, the tubes were incubated on ice for 30 minutes and covered with foil. Then, the tubes were centrifuged at 1200 RPM for 8 minutes at 4° C. The supernatant was carefully removed. The cells were re-suspended in 2 ml of PBS-FACS buffer and centrifuged again as above. The supernatant was carefully removed again and the cells were re-suspended in 500 μl of PBS-FACS buffer. The tubes were then analyzed using a flow cytometer. […]

P-Selectin = assay: HUVEC cell surface expression of P-Selectin by flow cytometry; format: cell-based, Human; conditions: 10 μM; for increase of TNF-α-induced cell expression of P-Selectin above baseline: TNF-α (1 ng/ml) stimulated, FIG. 3; for inhibition of P-Selectin expression: unstimulated, FIG. 2
Method: as §1, §2, §5, §6

VE-Cadherin = assay: HUVEC cell surface expression of VE-Cadherin (CD144) by flow cytometry; format: cell-based, Human; conditions: 10 μM, FIG. 4
Method: as §1, §2, §3

CD44 = assay: HUVEC cell surface expression of CD44 by flow cytometry; format: cell-based, Human; conditions: 10 μM, FIG. 4
Method: as §1, §2, §3

VCAM = assay: HUVEC cell surface expression of VCAM by flow cytometry; format: cell-based, Human; conditions: TNF-α stimulated, 10 μM, FIG. 5
Method: as §4

TNF-α = assay: Ultraviolet B-induced TNF-alpha production by human keratinocytes (HEKn cells), TNF-α ELISA; format: cell-based
Method: Cutaneous lupus patients often experience disease exacerbation when exposed to ultraviolet (UV) light. This is thought to be due to UVB-induced TNF-α production by keratinocytes. […] In vitro study for cutaneous lupus was performed to investigate how the compounds of the invention affect TNF-α production in keratinocytes.
Human neonatal foreskin epidermal keratinocytes (HEKn cells) were obtained from Cascade Biologics and were grown in serum-free medium supplemented with growth factors. When cells reached 80% confluency, they were trypsinized and plated at 1×10^5 cells/well in 6 well dishes. Plates were incubated for 24 hours to allow cell adhesion. To optimize conditions for the release of TNF-α, cells were treated with various degrees of exposure to UVB radiation (1, 4 and 24 hours). Supernatants were then collected and tested in the TNF-α ELISA.
Supernatants were collected and tested in the TNF-α ELISA at 1 Hour (bars with no pattern), 4 Hours (lined bars), or 24 Hours (checkered bars) after exposure. Results are the average of two experiments. The results shown in FIG. 7 indicate that supernatants collected 24 hours after HEKn cells were exposed to UVB had the highest levels of TNF-α. After exposure to 10, 50, or 100 mJ/cm^2, cells remained attached to the wells and no cell damage was observed. The 300 mJ/cm^2 UVB exposure was too high for the HEKn cells and many cells were damaged and detached from the bottom of the wells.
Cells were treated for 4 hours with (+)-2-[1-(3-ethoxy-4-methoxyphenyl)-2-methylsulfonylethyl]-4-acetylaminoisoindoline-1,3-dione (compound named 10004), or cyclopropyl {2-[(1S)-1-(3-ethoxy-4-methoxyphenyl)-2-(methylsulfonyl)ethyl]-3-oxoisoindolin-4-yl}carboxamide (compound named 11050) at 0.1 μM, 1 μM, or 10 μM. Medium was aspirated the cells washed and then exposed to 50 mJ/cm^2 UVB radiation. Fresh medium was added and the cells were incubated for 24 hours. Supernatents were removed and tested in the TNF-α ELISA kit from Pierce Biotechnology. […] (FIG. 8). […] (FIG. 8).
In other experiments, cells were treated for 4 hours with 3-(4-amino-1-oxo-1,3-dihydro-isoindol-2-yl)-piperidine-2,6-dione (compound named 5013), (+)-2-[1-(3-ethoxy-4-methoxyphenyl)-2-methylsulfonylethyl]-4-acetylaminoisoindoline-1,3-dione (compound named 10004) or compound named 16057, at 0.1 μM or 1 μM. […] (FIG. 9). […] (FIG. 9).

E-Selectin [2] = assay: E-Selectin cell surface expression in HUVEC detected by ELISA; format: cell-based, Human; conditions: HUVEC, 0.25, 0.5 and 1 ng/ml of TNF-α, 10 μM, FIG. 6
From the text: In this assay, the mixture of Compound (1) and PGE2 appeared to work synergistically.

[3] = TNF-α (1 ng/ml) stimulated, FIG. 3
[4] = HEKn cells treated 4 hours at 0.1 μM, 1 μM, or 10 μM, 50 mJ/cm^2 UVB, 24 hours, FIG. 8

Structure (SMILES)	CD51/61 cell surface expression compared to untreated conditions (CD51/61)	E-Selectin cell surface expression (E-Selectin [1])	increase of TNF-α-induced cell expression of P-Selectin above baseline (P-Selectin)	inhibition of P-Selectin expression (P-Selectin)	TNF-α-stimulated cell surface expression of VE-Cadherin (VE-Cadherin)	inhibition of TNF-α-stimulated cell surface expression of CD44 (CD44)	levels of TNF-α released after UVB exposure (TNF-α; [4])	inhibition of TNF-α-induced E-Selectin expression (E-Selectin [1]; [3])	also measured
CCOc1cc(C(CS(C)(=O)=O)N2C(=O)c3cccc(NC(C)=O)c3C2=O)ccc1OC (single isomer, unassigned; (+)) [Compound (1), (+)-2-[1-(3-ethoxy-4-methoxyphenyl)-2-methylsulfonylethyl]-4-acetylaminoisoindoline-1,3-dione]	unaffected	inhibited	40%	approximately 55%	unaffected	approximately 30%	dose dependent decrease	–	increase of ICAM-1 cell surface expression (ICAM-1): approximately 35%; TNF-α-stimulated cell surface expression of E-Selectin (E-Selectin [1]; [3]): unaffected; increase of P-Selectin cell surface expression (P-Selectin; TNF-α stimulated, FIG. 5): approximately 35%; decrease of VCAM expression (VCAM): 30%; levels of TNF-α released after UVB exposure (TNF-α; HEKn cells treated 4 hours at 0.1 μM or 1 μM, UVB, FIG. 9): dose dependent decrease; TNF-α levels after UVB exposure with the 10 μM treatment (TNF-α; HEKn cells treated 4 hours at 10 μM, 50 mJ/cm^2 UVB, 24 hours, FIG. 8): TNF-α levels similar to cells not treated with radiation
Nc1cccc2c1CN(C1CCC(=O)NC1=O)C2=O (stereo not drawn) [Compound 5013, 3-(4-amino-1-oxo-1,3-dihydro-isoindol-2-yl)-piperidine-2,6-dione]	–	–	–	–	–	–	–	–	TNF-α levels after UVB exposure with the 0.1 μM treatment (TNF-α; HEKn cells treated 4 hours at 0.1 μM, UVB, FIG. 9): TNF-α levels lower than cells not treated with radiation
CCOc1cc([C@@H](CS(C)(=O)=O)N2Cc3cccc(NC(=O)C4CC4)c3C2=O)ccc1OC [Compound 11050, cyclopropyl {2-[(1S)-1-(3-ethoxy-4-methoxyphenyl)-2-(methylsulfonyl)ethyl]-3-oxoisoindolin-4-yl}carboxamide]	–	–	–	–	–	–	dose dependent decrease	–	–
Nc1cccc2c1C(=O)N(C1CCC(=O)NC1=O)C2=O (stereo not drawn) [Compound (2), 4-(amino)-2-(2,6-dioxo(3-piperidyl))-isoindoline-1,3-dione]	unaffected	inhibited	> 2 fold	~35%	unaffected	approximately 30%	–	approximately 20%	increase of P-Selectin expression (P-Selectin; TNF-α stimulated, FIG. 5): ~2 fold; TNF-α-stimulated E-Selectin cell surface expression (ELISA) (E-Selectin [2]): inhibitory effect
CCCCC(C)(C)[C@H](O)/C=C/[C@H]1[C@H](O)CC(=O)[C@@H]1C/C=C\CCCC(=O)O [PGE2, 16,16-Dimethyl-PGE2, reference compound]	–	–	–	–	unaffected	–	–	50%	reduction in the CD51/61 cell surface expression (CD51/61): 20%; cell surface expression of E-Selectin (E-Selectin [1]; TNF-α stimulated, FIG. 5): significantly decreased; TNF-α-stimulated cell surface expression of CD44 (CD44): no detectable effects; cell surface expression of VCAM (VCAM): significantly decreased
